Data published in US8906962B2, “Compositions and methods for treating hair loss using non-naturally occurring prostaglandins” (Duke University, priority 2000, dated 2014).

Columns and labels:
hFP = biological target: T1, hFP (Homo sapiens, UniProt P43088); assay: Radioligand Binding Assay (competition with (3H) PGF2 on hFP membranes); conditions: relative to PGF2α, hFP membranes from transfected COS-7 cells
T1 construct: expressed in transfected cells; host or cells: COS-7 cells, transient transfection with LipofectAMINE; membranes prepared
Procedure: IC50 of a PGF can be determined relative to PGF2α using the Radioligand Binding Assay. As a control, the IC50 for PGF2α itself should be no lower than 1.0 nM and no higher than 5.0 nM.
In this assay, COS-7 cells are transiently transfected with the hFP recombinant plasmid using LipofectAMINE Reagent. Forty-eight hours later, the tranfected cells are washed with Hank's Balanced Salt Solution (HBSS, without CaCl2, MgCl2, MgSO4, or phenol red). The cells are detached with versene, and HBSS is added. The mixture is centrifuged at 200 g for 10 minutes, at 4° C. to pellet the cells. The pellet is resuspended in Phosphate-Buffered Saline-EDTA buffer (PBS; 1 mM EDTA; pH 7.4; 4° C.). The cells are disrupted by nitrogen cavitation (Parr model 4639), at 800 psi, for 15 minutes at 4° C. The mixture is centrifuged at 1000 g for 10 minutes at 4° C. The supernatant is centrifuged at 100,000 g for 60 minutes at 4° C. The pellet is resuspended to 1 mg protein/mL TME buffer (50 mM Tris; 10 mM MgCl2; 1 mM EDTA; pH 6.0; 4° C.) based on protein levels measured using the Pierce BCA Protein Assay kit. The homogenate is mixed for 10 seconds using a Kinematica POLYTRON® (available from KINEMATICA AG, Luzernerstrassel47A CH-6014 Littau, Switzerland). The membrane preparations are then stored at −80° C., until thawed for assay use.
The receptor competition binding assays are developed in a 96 well format. Each well contains […] of hFP membrane, 5 nM (3H) PGF2, and the various competing compounds in a total volume of […]. The plates are incubated at 23° C. for 1 hour. The incubation is terminated by rapid filtration using the Packard Filtermate 196 harvester through Packard UNIFILTER® GF/B filters (available from Packard Instrument Co., Inc. of Downers Grove Ill.) pre-wetted with TME buffer. The filter is washed four times with TME buffer. […] The plates are read on a Packard TOPCOUNT® Microplate Scintillation Counter (also available from Packard Instrument Co., Inc.)

C3H mice = assay: Telogen Conversion Assay (topical, skin colour grade, hair growth); format: in vivo; conditions: for Grades (average animal score): day 26, visual grade 0 to 4 of skin colour (Table 4)
Procedure: PGF's are tested for their potential to grow hair using the Telogen Conversion Assay. The Telogen Conversion Assay measures the potential of a PGF to convert mice in the resting stage of the hair growth cycle (“telogen”), to the growth stage of the hair growth cycle (“anagen”).
Without intending to be limited by theory, there are three principal phases of the hair growth cycle: anagen, catagen, and telogen. It is believed that there is a longer telogen period in C3H mice (Harlan Sprague Dawley, Inc., Indianapolis, Ind.) from approximately 40 days of age until about 75 days of age, when hair growth is synchronized. It is believed that after 75 days of age, hair growth is no longer synchronized. Wherein about 40 day-old mice with dark fur (brown or black) are used in hair growth experiments, melanogenesis occurs along with hair (fur) growth wherein the topical application of hair growth inducers are evaluated. The Telogen Conversion Assay herein is used to screen PGF's for potential hair growth by measuring melanogenesis.
Three groups of 44 day-old C3H mice are used: a vehicle control group, a positive control group, and a test PGF group, wherein the test PGF group is administered a PGF used in the method of this invention. […] Day 1 is the first day of treatment. Typical dosage concentrations are set forth in Table 3, however the skilled artisan will readily understand that such concentrations may be modified.
The mice are treated topically Monday through Friday on their lower back (base of tail to the lower rib). A pipettor and tip are used to deliver 400 μL to each mouse's back. The 400 μL application is applied slowly while moving hair on the mouse to allow the application to reach the skin.
While each treatment is being applied to the mouse topically, a visual grade of from 0 to 4 will be given to the skin color in the application area of each animal. As a mouse converts from telogen to anagen, its skin color will become more bluish-black.

EP1 receptor = biological target: T2, EP1 receptor (Homo sapiens, UniProt P34995); assay: Receptor selectivity statement (EP1 activation); conditions: stated without method; said to result in the side effect of pain
T2 sequence (P34995 1-402): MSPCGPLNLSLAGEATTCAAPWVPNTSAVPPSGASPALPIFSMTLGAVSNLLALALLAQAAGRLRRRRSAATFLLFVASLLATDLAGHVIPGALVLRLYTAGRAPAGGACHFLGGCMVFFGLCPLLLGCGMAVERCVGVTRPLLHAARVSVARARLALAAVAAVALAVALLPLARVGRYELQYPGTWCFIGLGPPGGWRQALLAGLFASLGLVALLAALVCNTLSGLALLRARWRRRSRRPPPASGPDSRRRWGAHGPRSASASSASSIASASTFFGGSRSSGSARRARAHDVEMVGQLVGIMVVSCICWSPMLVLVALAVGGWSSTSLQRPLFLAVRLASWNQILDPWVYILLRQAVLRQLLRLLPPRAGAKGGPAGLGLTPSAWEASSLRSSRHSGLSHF

T1 sequence (P43088 whole entry): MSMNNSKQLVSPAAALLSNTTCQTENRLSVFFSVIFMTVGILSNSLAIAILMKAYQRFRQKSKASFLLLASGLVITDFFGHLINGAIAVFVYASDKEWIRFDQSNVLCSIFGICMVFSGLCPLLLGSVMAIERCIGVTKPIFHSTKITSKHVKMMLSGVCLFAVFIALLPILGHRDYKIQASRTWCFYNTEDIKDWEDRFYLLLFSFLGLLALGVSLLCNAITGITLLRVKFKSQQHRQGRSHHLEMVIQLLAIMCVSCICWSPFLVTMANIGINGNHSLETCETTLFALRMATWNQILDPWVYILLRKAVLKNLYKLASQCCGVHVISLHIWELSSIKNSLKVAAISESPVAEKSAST

Compound | IC50 (hFP) | hair growth / activity (C3H mice; 0.01% topical) | Grades (average animal score) (C3H mice; 0.01%) | hair growth / activity (C3H mice; 0.1% topical) | Grades (average animal score) (C3H mice; 0.1%) | also measured
O=C(O)CCCCCC[C@@H]1[C@@H](CCC(O)c2nc3ccccc3s2)[C@H](O)C[C@@H]1O (stereo partly drawn) [13,14-dihydro-15-(2-benzathiozolyl)pentanor Prostaglandin F1α] | 45 nM | – | – | – | – | hair growth (C3H mice; concentration not given): grew hair
COC(=O)CCC/C=C\C[C@@H]1[C@@H](/C=C/[C@@H](O)COc2cccc(C(F)(F)F)c2)[C@H](O)C[C@@H]1O [Fluprostenol Methyl Ester] | – | grew hair | 3.9 | grew hair | 2.6 | –
N[C@@H](Cc1cc(I)c(Oc2ccc(O)c(I)c2)c(I)c1)C(=O)O [T3 compound, 3,5,3′-triiodothyronine, reference compound] | – | grew hair | – | – | – | –
Latanoprost [reference compound] | – | active | 0.71 | active | 2.9 | activation of EP1 receptor (nonselective) (EP1 receptor): activates the EP1 receptor

Continued, in another order:

IC50 (hFP) | Compound | hair growth / activity (C3H mice; 0.01% topical) | Grades (average animal score) (C3H mice; 0.01%) | hair growth / activity (C3H mice; 0.1% topical) | Grades (average animal score) (C3H mice; 0.1%) | also measured
19 nM | O=C(O)CCCCCC[C@@H]1[C@@H](CCC(O)C#Cc2ccccc2F)[C@H](O)C[C@@H]1O (some centres unmarked) [Example 3-1] | – | – | – | – | –
27 nM | O=C(O)CCCCCC[C@@H]1[C@@H](CCC(O)c2cc3ccccc3s2)[C@H](O)C[C@@H]1O (some centres unmarked) [Example 3-2] | – | – | – | – | –
